Here are results for 1 compound from publication PMC8009417, “Selective killing of homologous recombination-deficient cancer cell lines by inhibitors of the RPA:RAD52 protein-protein interaction” (PLoS ONE, 2021).

One test concerns RAD52 protein level. The test is described as follows: Simple Western of RAD52 protein level after treatment. As to conditions: 72 h at doses near EC50. In kind it is cell-based, human. Here is the method:
Fig 6 The effect of mitoxantrone treatment on RAD52 levels and DNA damage. […] Data and ANOVA statistical analyses are described in the material and methods section. Significance statistics are shown with single, double, or triple asterisks representing P<0.05, P<0.005, or P<0.0005, respectively.
For western analysis, each cell line was grown and treated as described above. Protein levels were measured in lysates by size separation with a ProteinSimple PeggySue instrument following the manufacturer’s recommendations. Lysates were prepared using the NanoPro Cell Lysis Kit with Bicine/CHAPS (ProteinSimple CBS403) at 0.75 mg/mL concentration when mixed with master mix (containing SDS, DTT and fluorescent molecular weight markers; ProteinSimple PS-FL01-8) and heated for 5 min at 95°C. Electrophoretic nanocapillary size separation of proteins was performed using default settings. After separation, UV light cross-linked proteins to the capillary wall. Capillaries were then washed and incubated with primary antibodies, washed, and incubated with anti-rabbit secondary antibody conjugated with HRP (ProteinSimple DM-001). Finally, luminol and peroxide were applied to generate chemoluminescence which was imaged by a CCD camera. Primary antibody concentrations were optimized and were diluted as follows: Abcam anti-RAD52 antibody (ab18263, diluted 1:25), R&D Systems Human Phospho-histone H2AX (S139) antibody (AF2288, diluted 1:100), and Cell Signalling Technology Pan-Actin antibody (#4968, diluted 1:2500).
The Simple western data were processed and analyzed with ProteinSimple Compass software. Peak areas were calculated using dropped lines. Each lysate was analyzed for RAD52 and γH2AX levels three times and for Actin two times (see S2 Fig). Replicate peak areas for RAD52 and γH2AX were averaged, divided by the average Actin peak area of that sample, multiplied by 100 and graphed using SigmaPlot 7.0.

Test [1] deals with BRCA2-deficient PE01 ovarian cancer cells (BRCA2-). The test is described as follows: Cell viability assay (PrestoBlue, 72 h), PE01. Conditions: Homo sapiens, estimated from the graphs. In kind it is cell-based. Here is the method:
BRCA2-deficient PE01 cell line (a gift from Dr. Toshiyasu Taniguchi, Tokai University, Japan) were derived from an ovarian cancer patient. BRCA2-proficient “revertant” cell line, C4-2 is one of eight clones derived from PE01 that has acquired resistance to both cisplatin and PARPi due to a secondary mutation that restored the BRCA2 function. PE01 and PE01 C4-2 were grown and maintained in DMEM high glucose (Hyclone) supplemented with 10% Fetal Bovine Serum (FBS, Invitrogen).
(§1) Cells were seeded 5 x 10^3 cells per well in 96-well plates in a 90 μL volume per well one day before treatment. Cells in 96-well plates were incubated with increasing concentrations of the compound or vehicle control (1% DMSO) for 72 hours. Each treatment plate contained nine concentrations of a compound in sextuplicate. Growth inhibition was determined using PrestoBlue reagent (Life Technologies, #A13261). Fluorescent measurements were taken using a Spectramax M5 plate reader (MDS). To assess cells’ replication in the absence of compounds as a control, six wells on each plate were treated with vehicle to be read in triplicate at the initial treatment day (T0) and at 72-hour read (T100).

Test [2] concerns GFP-RAD51 foci in PE01 C4-2 cells. The test is described as follows: Radiation-induced GFP-RAD51 foci formation. In kind it is cell-based, human. As to conditions: 3 nM pre-treatment, 15 Gy X-ray. Here is the method:
(§2) Cells without mitoxantrone and radiation (labeled C) were controls. The average percent of cells with foci (more than 5 foci per cell) are graphed from three independent experiments. More than 30 cells per experiment were analyzed. Error bars represent standard deviation.
(§3) Each cell line was seeded on a coverslip at 10^5 cells per well in a 24-well plate. After the 24 hour incubation, the cells were pre-incubated with mitoxantrone for 2 hours, then irradiated with X-ray at 15 Gy with the RS-2000 Irradiator. After 2~ 8 hours of the irradiation, the cells were fixed in 10% formaldehyde solution at room temperature for 30 min, followed by 10 min incubation in PBS containing 0.5% Triton X-100. After staining with 1 μg/ml H1399 Hoechst dye solution, each coverslip was mounted on a slide. GFP proteins were detected with a Zeiss 710 Confocal Laser Scanning Microscope, and images were processed using Zeiss ZEN software. A cell contained more than 5 foci was considered as positive.

The test system of test [3] is T1, RPA:RAD52 PPI in U2OS cells.
T1 construct: endogenous in cells; host or cells: U2OS
The test is described as follows: Size exclusion chromatography and co-immunoprecipitation of RAD52 with RPA from treated cells. In kind it is cell-based. Conditions: 3 nM, 24 hours, preliminary experiments. Here is the method:
(A) RAD52 was co-immunoprecipitated with RPA in the fractions 5, 8, and 10 in the control experiment. The elution positions of the molecular weight standards, thyroglobulin (669 kDa), apoferritin (443 kDa), beta-amylase (200 kDa), and bovine serum albumin (66 kDa), are indicated below the western blot.
U2OS cells (10^6 cells) were seeded in a 100 mm dish and grown overnight. The cells were treated with the indicated concentrations of mitoxantrone (MTX) for 24 hours. The cell lysate was prepared in 100 μl of lysis buffer (PBS with 0.5% NP40, 0.5% Triton X100, 1 mM DTT, protease and phosphatase inhibitors, and 10% glycerol). After mixing with 100 μl cold PBS, the lysate was incubated with 100 μl of DEAE sepharose (GE Life Sciences) for 2 hours at 4°C with rotation. An unbound fraction from DEAE sepharose (~200 μl) was diluted with 200 μl of PBS and half of the mixture was fractionated with Superdex200 (GE Life Sciences) using PBS as elution buffer. Each fraction was incubated with anti-RPA (p32) antibody conjugated with biotin (NeoMarkers, MS-691-B0) at 4°C overnight, then incubated with Streptavidin-magnetic beads (Promega #Z5481) for one hour at 4°C with rotation. […] RAD52 and RPA (p32) were detected by western blotting with anti-RAD52 antibody (LS-C42570, LSBio) and anti-RPA2 antibody (A300-244A, Bethyl Laboratories), respectively.
On the technique in general: SEC sorts molecules by how far they enter the pores of the column.

Test [4] concerns GFP-RAD52 foci in PE01 C4-2 cells. The test is described as follows: Radiation-induced GFP-RAD52 foci formation. In kind it is cell-based, human. Conditions: 3 nM pre-treatment, 15 Gy X-ray. Here is the method: as §2, §3
Test [5] concerns PARPi-resistant UWB1.SYr13 cells. The test is described as follows: Cell viability assay (PrestoBlue, 72 h), UWB1.SYr13. In kind it is cell-based. Conditions: Homo sapiens, estimated from the graphs.
From the text: BRCA1-deficient UWB1.289 cells corrected with wild-type BRCA1 gene (BRCA1+; closed triangle) and parental BRCA1-deficient UWB1.289 (BRCA1-; closed circle). Two PARPi-resistant cell lines derived from UWB1.289, UWB1.289.SYr12 (closed diamond) and UWB1.SYr13 (X), were also examined.
UWB1.289 (a gift from Dr. Lee Zou, Harvard Medical School, Boston, MA) were derived from a serous ovarian carcinoma with a germline BRCA1 mutation and a deletion of the wild-type allele. […] Two PARP-resistant cell lines, SYr12 and SYr13, were derived from the UWB1.289. The Mammary Epithelial growth media, along with SupplementMix solution for UWB1 cell lines, were obtained from PromoCell GmbH and mixed as described.
as §1

What is called EC50 is the concentration giving half of the maximal effect. For `O=C1c2c(O)ccc(O)c2C(=O)c2c(NCCNCCO)ccc(NCCNCCO)c21` [Mitoxantrone, mitoxantrone], the “Change of RAD52 level with treatment” value in the test with RAD52 protein level (HCC1937 cells) is “the level of RAD52 increased”; in the test on RAD52 protein level (PE01 cells) it was “dramatic reduction in RAD52 protein”; in the test with RAD52 protein level (UWB1 cells), “the level of RAD52 decreased”. Further, the EC50 in test [1] is 100 nM; in test [5] it was 2500 nM. Also, the “Effect on radiation-induced RAD51 foci formation” value in test [2] is reported as “did not suppress the radiation-induced RAD51 foci formation”. Besides, the “Effect on RPA:RAD52 PPI in cells (co-immunoprecipitation of RAD52 with RPA)” value in test [3] is “disrupts the RPA:RAD52 PPI in cells”. The “Effect on radiation-induced RAD52 foci formation” value in test [4] is given as “inhibited the radiation-induced RAD52 foci formation”.
